Biological target: T1, MotL (sfGFP-MotL) (Shewanella putrefaciens, UniProt A0ABX8XB40)
T1 construct: gene K3G22_17145
T1 sequence (A0ABX8XB40 1-144): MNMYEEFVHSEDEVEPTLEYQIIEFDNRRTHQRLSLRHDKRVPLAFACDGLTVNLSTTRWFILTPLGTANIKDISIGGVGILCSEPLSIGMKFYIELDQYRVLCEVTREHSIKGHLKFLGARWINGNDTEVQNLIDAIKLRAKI
Test: radioligand spot binding on nitrocellulose, phosphorimaging
Settings: labelled compound ([…]); […] protein, […] Tris-HCl, […] NaCl, […] MgCl2, […] min, RT; protein purified from strain co-producing phosphodiesterase PdeH

Compound: Nc1nc2c(ncn2[C@@H]2O[C@@H]3COP(=O)(O)O[C@H]4[C@@H](O)[C@H](n5cnc6c(=O)[nH]c(N)nc65)O[C@@H]4COP(=O)(O)O[C@H]3[C@H]2O)c(=O)[nH]1 [c-di-GMP]
- radioligand spot binding on nitrocellulose, phosphorimaging: Produced under these conditions, robust c-di-GMP binding to MotL could be observed

Source: publication PMC8203827, “The Stand-Alone PilZ-Domain Protein MotL Specifically Regulates the Activity of the Secondary Lateral Flagellar System in Shewanella putrefaciens” (Frontiers in Microbiology, 2021)
